Data taken from PMC5750217 (Nature Communications, 2018).

Tests used:
A1-T459C (mutant ASCT1) = target: T1, A1-T459C (mutant ASCT1) (Homo sapiens, UniProt P43007, T459C); experiment: Two electrode voltage clamp, substrate-activated anion current in oocytes expressing A1-T459C; format: cell-based; details: for EC50: A1-T459C in oocytes, NO3−-containing buffer, current at +60 mV
T1 construct: expressed in transfected cells; host or cells: Xenopus laevis oocytes (cRNA injection)
T1 sequence (P43007 1-532 T459C): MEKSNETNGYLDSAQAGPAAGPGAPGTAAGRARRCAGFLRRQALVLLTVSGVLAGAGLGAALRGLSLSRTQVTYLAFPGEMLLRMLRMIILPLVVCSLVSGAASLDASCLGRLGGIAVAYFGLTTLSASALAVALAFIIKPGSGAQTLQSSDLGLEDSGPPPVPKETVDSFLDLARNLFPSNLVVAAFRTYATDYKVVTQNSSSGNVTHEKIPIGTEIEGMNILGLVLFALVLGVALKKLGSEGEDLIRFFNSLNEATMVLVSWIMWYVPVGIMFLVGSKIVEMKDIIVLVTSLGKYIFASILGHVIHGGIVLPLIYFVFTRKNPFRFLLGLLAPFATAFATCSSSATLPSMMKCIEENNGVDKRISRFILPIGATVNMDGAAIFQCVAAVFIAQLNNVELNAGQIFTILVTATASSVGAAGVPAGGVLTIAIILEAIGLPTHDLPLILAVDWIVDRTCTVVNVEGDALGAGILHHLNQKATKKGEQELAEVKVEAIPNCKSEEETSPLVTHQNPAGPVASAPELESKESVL
Description: All chemicals were obtained from Sigma unless otherwise stated. Stage V oocytes were harvested from female Xenopus laevis (frogs) which were obtained from Nasco (Fort Alkinson, USA). Frogs were anaesthetised with 6.5 mM tricaine neutralised with 7.14 mM sodium bicarbonate. After making an incision in the abdomen of the frog, ovarian sacs were removed and stored in OR-2 buffer (82.5 mM NaCl, 2 mM KCl, 1 mM MgCl2, 5 mM hemisodium HEPES, pH 7.5). This surgical procedure follows a protocol (#2016/970) approved by the University of Sydney Animal Ethics Committee under the Australian Code of Practice for the Care and Use of Animals for Scientific Purposes. To isolate oocytes, the ovarian sacs were cut into small sections before being digested by agitation with 2 mg per ml Collagenase A for 1–2 h. Following digestion, defoliculated oocytes were initially rinsed with OR-2, followed by frog Ringer’s solution (96 mM NaCl, 2 mM KCl, 1 mM MgCl2, 1.8 mM CaCl2, 5 mM hemisodium HEPES, pH 7.5). A total of 20 ng of transporter cRNA was injected into oocytes which were stored in frog Ringer’s solution supplemented with 0.1% gentamycin, 50 μg per ml tetracycline, 2.5 mM pyruvate and 0.5 mM theophylline at 16–18 °C.
After 2–4 days of microinjection, current recordings were made using the two electrode voltage clamp technique with a Geneclamp 500 amplifier (Axon Instruments, Foster City, CA) interfaced with a MacLab 2e chart recorder (ADI Instruments, Sydney, Australia) using the chart software, and a Digidata 1322A (Axon Instruments) controlled by an IBM-compatible computer using the pClamp software (version 10, Molecular Devices, Union City, CA). The current–voltage relationships for substrate elicited conductances were obtained by subjecting cells to 200 ms voltage pulses between −100 mV and + 60 mV in 10 mV steps. Current–voltage relationships were calculated by subtracting steady state current measurements in the absence of substrate from corresponding current measurements in the presence of substrate. […]

GltPh-R397C = target: T2, GltPh-R397C (Pyrococcus horikoshii, UniProt O59010, R397C); experiment: biochemical; format: binding; details: for Apparent number of Na+ ions coupled to binding (n): GltPh-R397C, global fit of isotherms at 10–100 mM Na+, 25 °C
T2 construct: hexa-His (N, cleaved yes); made in house; host or cells: Escherichia coli Top10 (pBAD)
T2 sequence (O59010 whole entry R397C): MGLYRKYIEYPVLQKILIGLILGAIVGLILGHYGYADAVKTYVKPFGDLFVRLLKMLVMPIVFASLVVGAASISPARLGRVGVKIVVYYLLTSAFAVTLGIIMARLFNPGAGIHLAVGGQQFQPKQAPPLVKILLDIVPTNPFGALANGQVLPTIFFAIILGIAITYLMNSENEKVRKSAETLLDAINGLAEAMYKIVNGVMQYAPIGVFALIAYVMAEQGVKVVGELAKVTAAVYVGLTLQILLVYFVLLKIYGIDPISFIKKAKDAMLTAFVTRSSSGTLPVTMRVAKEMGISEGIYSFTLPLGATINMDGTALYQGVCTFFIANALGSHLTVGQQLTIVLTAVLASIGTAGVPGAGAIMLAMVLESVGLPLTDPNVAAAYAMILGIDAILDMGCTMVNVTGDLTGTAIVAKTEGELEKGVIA
Description: Fluorescence-based binding assays were performed by titrating purified protein (50 μg per ml) in 20 mM HEPES/Tris, pH 7.4, 200 mM choline chloride, 0.4 mM n-dodecyl^−β-D-maltopyranoside, 200 nM styryl fluorescent dye RH421 (Invitrogen, Inc., Grand Island, NY) with NaCl, L-ser, L-cys or benzylcysteine at 25 °C[51]. The RH421 dye was excited at 532 nm, and the fluorescence was collected at 628 nm using a QuantaMaster (Photon International Technology, Inc., Edison, NJ). Fluorescence emissions were measured after at least 10 min equilibration to ensure a stabilised signal. The data were analysed using GraphPad Prism version 6.0 for Mac (GraphPad Software, La Jolla California USA). Fractional fluorescence changes were normalised to maximal fluorescence changes, then plotted as a function of ligand concentration and fitted to the Hill equation. All the experiments were performed at least in triplicate.
Analysis of ligand binding data. The voltage sensitive amphipathic dye RH421 reports on Na+ binding to purified GltPh protein in detergent3. RH421 was used to follow Na+ binding to GltPh‐R397C protein either alone or in reactions coupled to binding of amino acids. […]
Coupled ions and amino acid binding was probed by titrating amino acids to the GltPh‐R397C protein in the presence of 10 – 100 mM Na+ ions. The obtained isotherms were analyzed to estimate an apparent number of Na+ ions coupled to binding of the amino acids.
Raw data were first normalized by the initial fluorescence of RH421 and plotted as fraction of fluorescence change (Supplementary […]
total amount of dye and detergent in the assay buffer.
To take into account significant amino acid‐independent Na+ binding, the sets of binding isotherms obtained at variable Na+ concentrations were fitted globally to a simplified binding equation: […]
KD,a is the combined dissociation constant for coupled Na+ and ligand binding and n is the apparent number of coupled ions. Fraction of the protein bound to either Na+ ions alone or to the ions and the […]
Fraction of the protein already bound to Na+ ions before ligand addition is: […]
Fractional fluorescence change Y is fitted to an equation: […]
where Y0 and ∆Y are, respectively, baseline and the signal difference between fully bound and apo […]
KD,a and n were fitted globally for each ligand. Y0 and ∆Y were adjusted for each isotherm independently. […]
individual isotherm to a standard Hill equation, plotted the apparent dissociation constants as functions of Na+ concentrations and compared the values to those predicted using the parameters from the global fits (Supplementary Figure 8).

Compound | GPNA % inhibition of L-serine activated current (A1-T459C (mutant ASCT1); A1-T459C, GPNA co-applied with EC50 of L-serine, maximal dose / 1 mM GPNA (Table 1 footnote)) [%] | Kd (GltPh-R397C) [µM] | Apparent number of Na+ ions coupled to binding (n) (GltPh-R397C) | EC50 (A1-T459C (mutant ASCT1)) [µM]
N[C@@H](CCC(=O)Nc1ccc([N+](=O)[O-])cc1)C(=O)O [GPNA, glutamyl-p-nitroanilide] | 18 ± 1 | – | – | –
N[C@@H](CS)C(=O)O [L-cysteine] | – | 31 ± 3 | 1.5 ± 0.04 | –
NC(=O)CC[C@H](N)C(=O)O [L-glutamine] | – | 1800 ± 400 | 1.1 ± 0.04 | 260 ± 80
N[C@@H](CO)C(=O)O [L-serine] | – | 9 ± 1 | 1.7 ± 0.04 | 83 ± 6
